Results from patent US12545708B2, “Peptide for treatment of corona virus infection disease COVID-19 and use thereof” (DAEGU GYEONGBUK INSTITUTE OF SCIENCE AND TECHNOLOGY, priority 2020, dated 2026).

Tests used:
[1] = target: RBD (Severe acute respiratory syndrome coronavirus 2, UniProt P0DTC2); assay: biochemical; type: binding, SARS-CoV2
[2] = system: HepG2 cell line
[3] = system: HEK293T cell line
[4] = system: MRC-5 cell line
[5] = system: HMC-3 cell line

Compound: CC[C@H](C)[C@H](NC(=O)[C@H](CC(N)=O)NC(=O)[C@@H](NC(=O)[C@H](CC(N)=O)NC(=O)[C@H](Cc1ccc(O)cc1)NC(=O)[C@@H](NC(=O)[C@H](CC(N)=O)NC(=O)[C@H](CC(=O)O)NC(=O)[C@H](C)NC(=O)[C@H](CC(C)C)NC(=O)[C@H](CCC(N)=O)NC(=O)[C@H](CO)NC(=O)[C@H](CCCCN)NC(=O)[C@@H](N)CCSC)C(C)C)[C@@H](C)O)C(=O)N[C@H](C(=O)N[C@@H](CCCCN)C(=O)N[C@@H](CCC(=O)O)C(=O)N[C@@H](CC(N)=O)C(=O)N[C@H](C(=O)N[C@@H](CCC(N)=O)C(=O)N[C@@H](CC(N)=O)C(=O)N[C@@H](CCSC)C(=O)N[C@@H](CC(N)=O)C(=O)N[C@@H](CCC(=O)O)C(=O)N[C@@H](CCC(=O)O)C(=O)N[C@@H](CCC(N)=O)C(=O)N[C@@H](C)C(=O)N[C@@H](CCCCN)C(=O)N[C@H](C(=O)N[C@@H](Cc1ccccc1)C(=O)N[C@@H](CC(C)C)C(=O)N[C@@H](CC(=O)O)C(=O)N[C@@H](CCCCN)C(=O)N[C@@H](Cc1ccccc1)C(=O)N[C@@H](CC(N)=O)C(=O)N[C@@H](Cc1c[nH]cn1)C(=O)N[C@@H](CCC(=O)O)C(=O)N[C@@H](C)C(=O)N[C@@H](CCC(=O)O)C(=O)N[C@@H](CC(=O)O)C(=O)N[C@@H](CC(C)C)C(=O)N[C@@H](Cc1ccccc1)C(=O)N[C@@H](Cc1ccc(O)cc1)C(=O)N[C@@H](CCC(N)=O)C(=O)N[C@@H](CO)C(=O)N[C@@H](CO)C(=O)NCC(=O)N[C@@H](CC(C)C)C(=O)NCC(=O)N[C@@H](CCCCN)C(=O)NCC(=O)N[C@@H](CC(=O)O)C(=O)N[C@@H](Cc1ccccc1)C(=O)N[C@@H](CCCNC(=N)N)C(=O)O)[C@@H](C)O)C(C)C)[C@@H](C)O [PEP9]
- Kd [1]: 34.5 nM
- change in cell viability [2]: no significant change
- change in cell viability [3]: no significant change
- change in cell viability [4]: no significant change
- change in cell viability [5]: no significant change
- decrease in the cell viability [5]: about 10%
